Structures are written as SMILES.

35 compounds from patent US20240025883A1, “PYRIMIDIN-2-YL SULFONAMIDE DERIVATIVES” (Hoffmann-La Roche Inc., priority 2021, published 2024) can be followed below.

human GPR17 short isoform, sequence (Q13304 29-367): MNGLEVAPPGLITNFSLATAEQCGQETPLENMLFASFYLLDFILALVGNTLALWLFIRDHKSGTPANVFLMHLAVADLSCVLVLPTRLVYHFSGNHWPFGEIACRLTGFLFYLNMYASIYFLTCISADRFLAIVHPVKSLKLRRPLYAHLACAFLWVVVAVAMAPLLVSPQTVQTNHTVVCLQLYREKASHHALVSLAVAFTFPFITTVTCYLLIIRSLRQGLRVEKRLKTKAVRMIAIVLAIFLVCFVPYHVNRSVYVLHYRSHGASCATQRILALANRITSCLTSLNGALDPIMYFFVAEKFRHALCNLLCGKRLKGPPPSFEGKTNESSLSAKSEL

This test has as its target human GPR17 short isoform (Homo sapiens (Human), UniProt Q13304). The experiment in a line: GPR17 cAMP assay (hGPR17 cAMP, antagonist mode against EC80 of MDL29,951). Type of test: cell-based. The conditions noted are these: CHO-K1 cells stably expressing human GPR17 short isoform; EC80 of agonist MDL29,951; forskolin 15 μM. In short, it runs like this: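 cAMP was read by competitive TR-FRET after a 30 min room-temperature stimulation: antagonists plus EC80 MDL29,951 and 0.5 mM IBMX, followed 5 min later by 15 μM forskolin. Cells were CHO-K1 with stable human GPR17 short isoform in HBSS/HEPES/BSA, pH 7.4; percent activity versus reference antagonist fitted sigmoidally.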
In general terms: Changes in cAMP serve as a functional read-out for many G protein-coupled receptors.
As usually defined, the IC50 is the concentration needed to halve the response being measured. A higher IC50 goes with weaker potency in that assay. `COc1nc(NS(=O)(=O)c2c[nH]c3nc(Br)ccc23)nc(OC)c1OCC#N` [Example 114, 6-bromo-N-[5-(cyanomethoxy)-4,6-dimethoxy-pyrimidin-2-yl]-1H-pyrrolo[2,3-b]pyridine-3-sulfonamide]: the concentration for half-maximal inhibition (IC50) came out at 0.045 µM. This counts as double-digit nanomolar.
For the compound `COc1nc(NS(=O)(=O)c2c[nH]c3c(OC4CC4)c(Cl)ccc23)ncc1CCC(F)F` [Example 212, 6-chloro-7-(cyclopropoxy)-N-[5-(3,3-difluoropropyl)-4-methoxy-pyrimidin-2-yl]-1H-indole-3-sulfonamide], the IC50 is 0.045 µM.
The same measure for `COc1nc(NS(=O)(=O)c2csc3cc(Cl)ccc23)ncc1OCCF` [Example 24, 6-chloro-n-[5-(2-fluoroethoxy)-4-methoxy-pyrimidin-2-yl]benzothiophene-3-sulfonamide]: 0.051 µM.
The compound `COc1nc(NS(=O)(=O)c2c[nH]c3c([S+](C)[O-])c(Cl)ccc23)ncc1CC(F)F` (centres unmarked) [Example 276, 6-chloro-N-[5-(2,2-difluoroethyl)-4-methoxy-pyrimidin-2-yl]-7-methylsulfinyl-1H-indole-3-sulfonamide] yielded an IC50 of 0.136 µM. Against the preceding compound, the IC50 is about 2.7-fold higher.
The same measure for `COc1nc(NS(=O)(=O)c2c[nH]c3cc(Cl)ccc23)nc(OC)c1OC(F)(F)CO` [Example 275, 6-chloro-N-[5-(1,1-difluoro-2-hydroxy-ethoxy)-4,6-dimethoxy-pyrimidin-2-yl]-1H-indole-3-sulfonamide]: 0.128 µM; for `COc1nc(NS(=O)(=O)c2c[nH]c3nc(Cl)ccc23)ncc1OCCF` [Example 10, 6-chloro-N-[5-(2-fluoroethoxy)-4-methoxy-pyrimidin-2-yl]-1H-pyrrolo[2,3-b]pyridine-3-sulfonamide]: 0.096 µM; for `COc1nc(NS(=O)(=O)c2c[nH]c3cc(Br)ccc23)nc(OC)c1CCC#N` [Example 93, 6-bromo-N-[5-(2-cyanoethyl)-4,6-dimethoxy-pyrimidin-2-yl]-1H-indole-3-sulfonamide]: 0.01 µM.
`COc1nc(NS(=O)(=O)c2c[nH]c3nc(Cl)ccc23)nc(OC)c1OC(F)F` [Example 205, 6-chloro-N-[5-(difluoromethoxy)-4,6-dimethoxy-pyrimidin-2-yl]-1H-pyrrolo[2,3-b]pyridine-3-sulfonamide]: the half-maximal inhibitory concentration (IC50) was 0.049 µM.
The same measure for `CCc1nc(NS(=O)(=O)c2c[nH]c3cc(Cl)ccc23)nc(OC)c1OCC(F)F` [Example 77, 6-chloro-N-[5-(2,2-difluoroethoxy)-4-ethyl-6-methoxy-pyrimidin-2-yl]-1H-indole-3-sulfonamide]: 0.148 µM; for `COc1nc(NS(=O)(=O)c2c[nH]c3nc(Cl)ccc23)ncc1CCC(F)F` [Example 204, 6-chloro-N-[5-(3,3-difluoropropyl)-4-methoxy-pyrimidin-2-yl]-1H-pyrrolo[2,3-b]pyridine-3-sulfonamide]: 0.029 µM.
Then `COc1nc(NS(=O)(=O)c2c[nH]c3cc(Cl)ccc23)nc(OC)c1C#N` [Example 32, 6-chloro-N-(5-cyano-4,6-dimethoxy-pyrimidin-2-yl)-1H-indole-3-sulfonamide], with 0.232 µM; and `COc1nc(NS(=O)(=O)c2c[nH]c3c(N(C)C)c(Cl)ccc23)nc(OC)c1CC(F)F` [Example 115, 6-chloro-N-[5-(2,2-difluoroethyl)-4,6-dimethoxy-pyrimidin-2-yl]-7-(dimethylamino)-1H-indole-3-sulfonamide], with 0.026 µM.
The same measure for `COc1nc(NS(=O)(=O)c2c[nH]c3nc(Cl)ccc23)ncc1CC(F)F` [Example 203, 6-chloro-N-[5-(2,2-difluoroethyl)-4-methoxy-pyrimidin-2-yl]-1H-pyrrolo[2,3-b]pyridine-3-sulfonamide]: 0.127 µM; for `COc1nc(NS(=O)(=O)c2c[nH]c3cc(Cl)ccc23)ncc1OCC(F)F` [Example 135, 6-chloro-N-[5-(2,2-difluoroethoxy)-4-methoxy-pyrimidin-2-yl]-1H-indole-3-sulfonamide]: 0.187 µM.
Compound `CCCc1ccc2c(S(=O)(=O)Nc3ncc(CC(F)F)c(OC)n3)c[nH]c2c1` [Example 153, N-[5-(2,2-difluoroethyl)-4-methoxypyrimidin-2-yl]-6-propyl-1H-indole-3-sulfonamide] had an IC50 of 0.353 µM.
Consider `COc1nc(NS(=O)(=O)c2c[nH]c3cc(Cl)ccc23)ncc1CC(F)C(F)F` (centres unmarked) [Example 266, 6-chloro-N-[4-methoxy-5-(2,3,3-trifluoropropyl)pyrimidin-2-yl]-1H-indole-3-sulfonamide], for which the half-inhibitory concentration (IC50) came to 0.09 µM.
Then `COc1nc(NS(=O)(=O)c2c[nH]c3cc(Cl)ccc23)nc(OC(F)F)c1Br` [Example 18, N-[5-bromo-4-(difluoromethoxy)-6-methoxy-pyrimidin-2-yl]-6-chloro-1H-indole-3-sulfonamide], with 0.083 µM; and `COc1nc(NS(=O)(=O)c2c[nH]c3c(C(F)F)c(Cl)ccc23)ncc1OCCF` [Example 4, 6-chloro-7-(difluoromethyl)-N-[5-(2-fluoroethoxy)-4-methoxy-pyrimidin-2-yl]-1H-indole-3-sulfonamide], with 0.034 µM.
Then `COc1nc(NS(=O)(=O)c2c[nH]c3nc(C)ccc23)nc(OC)c1OCCF` [Example 131, N-[5-(2-fluoroethoxy)-4,6-dimethoxy-pyrimidin-2-yl]-6-methyl-1H-pyrrolo[2,3-b]pyridine-3-sulfonamide], with 0.116 µM.
In turn, `COc1nc(NS(=O)(=O)c2csc3nc(C(F)F)ccc23)nc(OC)c1CC(F)F` [Example 167, N-[5-(2,2-difluoroethyl)-4,6-dimethoxy-pyrimidin-2-yl]-6-(difluoromethyl)thieno[2,3-b]pyridine-3-sulfonamide] returned a half-inhibitory concentration (IC50) of 0.259 µM.
Then `COCCc1c(OC)nc(NS(=O)(=O)c2c[nH]c3cc(Cl)ccc23)nc1OC` [Example 66, 6-chloro-N-[4,6-dimethoxy-5-(2-methoxyethyl)pyrimidin-2-yl]-1H-indole-3-sulfonamide], with 0.019 µM.
The compound `COc1nc(NS(=O)(=O)c2csc3c(F)c(Cl)ccc23)ncc1CCC#N` [Example 163, 6-chloro-N-[5-(2-cyanoethyl)-4-methoxy-pyrimidin-2-yl]-7-fluoro-benzothiophene-3-sulfonamide] yielded an IC50 of 0.216 µM.
`COc1nc(NS(=O)(=O)c2c[nH]c3nc(Br)ccc23)ncc1CCC(F)F` [Example 201, 6-bromo-N-[5-(3,3-difluoropropyl)-4-methoxy-pyrimidin-2-yl]-1H-pyrrolo[2,3-b]pyridine-3-sulfonamide] registered a half-inhibitory concentration (IC50) of 0.03 µM.
`COc1nc(NS(=O)(=O)c2c[nH]c3nc(Cl)ccc23)nc(OC)c1CCC#N` [Example 122, 6-chloro-N-[5-(2-cyanoethyl)-4,6-dimethoxy-pyrimidin-2-yl]-1H-pyrrolo[2,3-b]pyridine-3-sulfonamide] registered a half-maximal inhibitory concentration (IC50) of 0.036 µM.
The same measure for `CCOc1cnc(NS(=O)(=O)c2c[nH]c3cc(Cl)ccc23)nc1OC` [Example 6, 6-chloro-N-(5-ethoxy-4-methoxy-pyrimidin-2-yl)-1H-indole-3-sulfonamide]: 0.129 µM; for `COc1nc(NS(=O)(=O)c2c[nH]c3c(F)c(Cl)ccc23)ncc1CCC(F)F` [Example 207, 6-chloro-N-[5-(3,3-difluoropropyl)-4-methoxy-pyrimidin-2-yl]-7-fluoro-1H-indole-3-sulfonamide]: 0.014 µM; for `COc1nc(NS(=O)(=O)c2c[nH]c3cc(Cl)ccc23)nc(OCCF)c1Br` [Example 14, N-[5-bromo-4-(2-fluoroethoxy)-6-methoxy-pyrimidin-2-yl]-6-chloro-1H-indole-3-sulfonamide]: 0.215 µM.
The same measure for `COc1nc(NS(=O)(=O)c2c[nH]c3cc(OC(F)F)ccc23)ncc1CC(F)F` [Example 104, N-[5-(2,2-difluoroethyl)-4-methoxy-pyrimidin-2-yl]-6-(difluoromethoxy)-1H-indole-3-sulfonamide]: 0.209 µM.
With `COc1nc(NS(=O)(=O)c2c[nH]c3c(F)c(Cl)ccc23)nc(OC)c1CC(F)F` [Example 217, 6-chloro-N-[5-(2,2-difluoroethyl)-4,6-dimethoxy-pyrimidin-2-yl]-7-fluoro-1H-indole-3-sulfonamide], the half-inhibitory concentration (IC50) was 0.017 µM. This IC50 lies about 12-fold lower than the previous one.
Then `COc1nc(NS(=O)(=O)c2csc3nc(Br)ccc23)ncc1CC(F)F` [Example 148, 6-bromo-N-[5-(2,2-difluoroethyl)-4-methoxy-pyrimidin-2-yl]thieno[2,3-b]pyridine-3-sulfonamide], with 0.049 µM; and `COc1nc(NS(=O)(=O)c2c[nH]c3nc(Cl)ccc23)ncc1OC(F)(F)CF` [Example 220, 6-chloro-N-[4-methoxy-5-(1,1,2-trifluoroethoxy)pyrimidin-2-yl]-1H-pyrrolo[2,3-b]pyridine-3-sulfonamide], with 0.027 µM.
The same measure for `COc1nc(NS(=O)(=O)c2c[nH]c3c(Br)cccc23)ncc1CC(F)F` [Example 129, 7-bromo-N-[5-(2,2-difluoroethyl)-4-methoxy-pyrimidin-2-yl]-1H-indole-3-sulfonamide]: 0.961 µM; for `COc1nc(NS(=O)(=O)c2c[nH]c3c(N4CCOCC4)c(Cl)ccc23)nc(OC)c1CC(F)F` [Example 133, 6-chloro-N-[5-(2,2-difluoroethyl)-4,6-dimethoxy-pyrimidin-2-yl]-7-morpholino-1H-indole-3-sulfonamide]: 0.076 µM; for `COc1nc(NS(=O)(=O)c2c[nH]c3cc(Cl)ccc23)ncc1CCC(F)(F)F` [Example 178, 6-chloro-N-[4-methoxy-5-(3,3,3-trifluoropropyl)pyrimidin-2-yl]-1H-indole-3-sulfonamide]: 0.108 µM.
Turning to `COc1nc(NS(=O)(=O)c2c[nH]c3c(SC(F)F)c(Cl)ccc23)ncc1CC(F)F` [Example 199, 6-chloro-N-[5-(2,2-difluoroethyl)-4-methoxy-pyrimidin-2-yl]-7-(difluoromethylsulfanyl)-1H-indole-3-sulfonamide], the IC50 amounted to 0.008 µM.
